Data on seven compounds can be found in patent US4564613A, “Pyridoindole derivatives, compositions and use” (Troponwerke GmbH & Co., priority 1983, dated 1986).

In general, ED50 refers to the dose at which the effect has come halfway, by size or by number of responders.

The subject of assay [1] is ptosis in mice induced by tetrabenazine. Kind of assay: Tetrabenazine antagonism (ptosis in mice induced by tetrabenazine). The format is in vivo. Conditions: Mus musculus, ip, compound intraperitoneally, 20 mg/kg of tetrabenazine intraperitoneally, read-out: ED50 (dose at which the ptosis induced by tetrabenazine is reduced to 50%). As for the experimental part:
(§1) Some test results for the new compounds of the general formula I which were tested for anxiolytic, nootropic and antidepressive properties are given below. The pilot tests used were inhibition of footshock induced aggression (Tedeschi et al., J. Pharmacol. Exp. Ther. 129, p. 28-34, 1954), for the anxiolytic action and the antitetrabenazine test (J. L. Howard et al., in: Antidepressants: Neurochemical, Behavioral and Clinical Perspectives, edited by S. J. Enna et al., Raven Press N.Y., pages 107-120, 1981) and amphetamine potentiation test (J. L. Howard et al., in: Antidepressants: Neurochemical, Behavioral and Clinical Perspectives, edited by S. J. Enna et al., Raven Press N.Y., pages 107-120, 1981) for the antidepressive action.
Substances having an antidepressive action antagonize the ptosis in mice induced by tetrabenazine. The ED50 value indicates the dose at which the ptosis induced by 20 mg/kg of tetrabenazine intraperitoneally is reduced to 50%.

The subject of assay [2] is amphetamine-induced stereotype behavior in rats. As to the kind of experiment: Amphetamine potentiation (amphetamine-induced stereotype behavior in rats). Conditions: Rattus norvegicus, ip, compound intraperitoneally, 2 mg/kg of DL-amphetamine sulphate intravenous, read-out: ED50 (dose at which the amphetamine-induced behavior is intensified by 50%). The format is in vivo. As for the experimental part:
as §1
Substances having an antidepressive action potentiate the amphetamine-induced stereotype behavior in rats.
The ED50 value given is the dose at which the amphetamine-induced behavior is intensified by 50% following intravenous administration of 2 mg/kg of DL-amphetamine sulphate.

Molecules are shown by their SMILES.

`CN1Cc2c(ccc3c2NCC3)C(c2ccc(F)cc2)C1` (centres unmarked) [3 b]: the ED50 was 0.01 mg/kg in assay [1] and 2.2 mg/kg in assay [2].
`CN1Cc2c(ccc3c2NC(=O)C3=O)C(c2ccc(F)cc2)C1` (centres unmarked) [1 a]: in assay [1], the ED50 worked out at 1 mg/kg.
Turning to `CN1Cc2c(ccc3cc[nH]c23)C(c2ccc(F)cc2)C1` (centres unmarked) [2 b], the ED50 in assay [1] was 0.2 mg/kg; in assay [2] it was 3.9 mg/kg.
For `CN1Cc2c(ccc3c2NCC3)C(c2ccccc2)C1` (centres unmarked) [3 a] the same measures were 0.1 mg/kg and 1.2 mg/kg.
The matching figures for `CN1Cc2c(ccc3cc[nH]c23)C(c2ccccc2)C1` (centres unmarked) [2 a]: 0.3 mg/kg and 2.4 mg/kg.
On to `CN1Cc2c(ccc3c2NC(=O)C3=O)C(c2ccccc2)C1` (centres unmarked) [1 b], for which the 50% effective dose (ED50) in assay [1] came to 2 mg/kg.
As for `CN1Cc2c(ccc3c2N(C)CC3)C(c2ccc(F)cc2)C1` (centres unmarked) [Compound 4, 1,8-Dimethyl-6-(fluorophenyl)-2,3,6,7,8,9-hexahydro-1H-pyrido[4,3-g]indole], in assay [1], the median effective dose (ED50) came out at 0.01 mg/kg.
